Measurements taken from article PMC8752738, “A propolis-derived small molecule ameliorates metabolic syndrome in obese mice by targeting the CREB/CRTC2 transcriptional complex” (Nature Communications, 2022).
Several values for one entry are separate records, joined by “and”; a condition that tells them apart may be missing. Identical values can stand only once.

Tested on: tissue mRNA levels
Assay: Quantitative PCR of tissue gene expression in treated mice
Type: in vivo, mouse
Design: key to mRNA levels Scap / mRNA levels Insig1 / mRNA levels Ldlr / mRNA levels Mttp / mRNA levels Atgl / mRNA levels Tnfaip2 / mRNA levels Rxra / mRNA levels Srebf1 / mRNA levels Ucp2: mRNA level normalized to ribosomal L32 mRNA (internal control)
Settings: for relative mRNA levels SREBP1a, group mean (Mean 2) / relative mRNA levels SREBP2, group mean (Mean 2) / relative mRNA levels SREBP1c, group mean (Mean 2) / relative mRNA levels Srebf-1a / relative mRNA levels Srebf-1c / relative mRNA levels Srebf-2: Figure 6a; for relative mRNA levels SREBP1a, group mean (Mean 2) / relative mRNA levels SREBP2, group mean (Mean 2) / relative mRNA levels SREBP1c, group mean (Mean 2): N=6; for relative mRNA levels SREBP1a, group mean (Mean 2): VEH mean 0.9485; for relative mRNA levels SREBP2, group mean (Mean 2): VEH mean 1.001; for relative mRNA levels SREBP1c, group mean (Mean 2): VEH mean 1.004; for relative mRNA levels Srebf-1a / relative mRNA levels Srebf-1c / relative mRNA levels Srebf-2: relative to VEH
Procedure: Total RNA from cells and tissues was extracted by Trizol (Invitrogen) and reverse-transcribed into cDNA using the prime script RT reagent kit with gDNA eraser (Takara). The mRNA levels were determined using the SYBR-green PCR kit (Takara) with ABIPRISM 7900HT Sequence detector (ABI) according to the manufacturer’s protocol. The quantitative qPCR primers used in this work are listed in Supplementary Table 1. Ribosomal L32 mRNA levels were used as an internal control.

[1] = DIO mice, i.p. 20 mg/kg, 5 weeks
[2] = APC 10mg/kg, individual animals
[3] = APC 20mg/kg, individual animals
[4] = Figure 6c, liver of DIO mice, individual animals
[5] = Figure 6e, BAT genes in DIO, individual animals
[6] = Figure 6e, group mean of APC-treated mice
[7] = Figure 6f, CRTC2KO mice, oral APC
[8] = Figure 6f, CRTC2KO mice, oral APC, group mean, N 6

## CC(C)=CCc1cc(C=CC(=O)O)cc(CC=C(C)C)c1O [APC, 3,5-diprenyl-4-hydroxycinnamic acid]
C57 WT mice, one oral dose 20 mg/kg
  mRNA levels of CREB/CRTC2 regulated genes in muscle, brain, spleen, kidney, small intestine, pancreas: did not significantly affect
CRTC2KO mice, Met 200mg/kg or APC-20
  Mean Diff. (Veh. vs. treated; head of the quantity not shown, section just before Figure 7h): -0.1036
DIO and db/db mice, i.p. 20 mg/kg, 5 weeks
  hepatic mRNA levels of G6pc, Pck1 and Pgc-1α: remarkably reduced
DIO mice
  Pgc-1α and Pgc-1β expression in liver, white and brown adipose tissues: significantly reduced
  hepatic mRNA levels of SREBP target genes: reduced
[1]
  liver mRNA levels of Lxra: decreased
  liver mRNA levels of Pparα, Pparγ and Rxrα: little effect
DIO mice, i.p. 5 weeks
  hepatic mRNA levels of Srebp-1a, 1c and 2: significantly decreased
APC 10mg/kg
  relative mRNA levels SREBP1a, group mean (Mean 2): 0.6192
  relative mRNA levels SREBP2, group mean (Mean 2): 0.7198
  relative mRNA levels SREBP1c, group mean (Mean 2): 0.5199
[2]
  relative mRNA levels Srebf-1a: 0.7632 and 0.606 and 0.6752 and 0.5408 and 0.5316 and 0.5987
  relative mRNA levels Srebf-1c: 0.3899 and 0.7333 and 0.3575 and 0.4477 and 0.6292 and 0.5618
  relative mRNA levels Srebf-2: 0.89 and 0.7028 and 0.7151 and 0.6142 and 0.6241 and 0.7725
APC 20mg/kg
  relative mRNA levels SREBP1a, group mean (Mean 2): 0.576
  relative mRNA levels SREBP2, group mean (Mean 2): 0.6534
  relative mRNA levels SREBP1c, group mean (Mean 2): 0.4898
[3]
  relative mRNA levels Srebf-1a: 0.7402 and 0.4743 and 0.5973 and 0.6221 and 0.5888 and 0.4336
  relative mRNA levels Srebf-1c: 0.4905 and 0.5691 and 0.5139 and 0.3623 and 0.4504 and 0.5527
  relative mRNA levels Srebf-2: 0.7803 and 0.8192 and 0.5739 and 0.6729 and 0.5114 and 0.5627
Figure 6c, liver of DIO mice, group mean, Mean of VEH 0.9497
  mRNA levels Pgc-1a, Mean of APC: 0.7169
Figure 6c, liver of DIO mice, group mean, Mean of VEH 0.9581
  mRNA levels Hmgcs, Mean of APC: 0.6963
Figure 6c, liver of DIO mice, group mean, Mean of VEH 0.9596
  mRNA levels Pgc-1b, Mean of APC: 0.6511
Figure 6c, liver of DIO mice, group mean, Mean of VEH 0.9821
  mRNA levels Acl, Mean of APC: 0.5548
Figure 6c, liver of DIO mice, group mean, Mean of VEH 0.983
  mRNA levels Insig1, Mean of APC: 1.256
Figure 6c, liver of DIO mice, group mean, Mean of VEH 0.9914
  mRNA levels Ldlr, Mean of APC: 0.5526
Figure 6c, liver of DIO mice, group mean, Mean of VEH 0.9918
  mRNA levels ApoE, Mean of APC: 0.7552
Figure 6c, liver of DIO mice, group mean, Mean of VEH 0.995
  mRNA levels Acsl1, Mean of APC: 0.6996
Figure 6c, liver of DIO mice, group mean, Mean of VEH 1.003
  mRNA levels Insig2b, Mean of APC: 1.315
Figure 6c, liver of DIO mice, group mean, Mean of VEH 1.007
  mRNA levels Lxra, Mean of APC: 0.5396
Figure 6c, liver of DIO mice, group mean, Mean of VEH 1.031
  mRNA levels Cel, Mean of APC: 2.279
Figure 6c, liver of DIO mice, group mean, Mean of VEH 1.033
  mRNA levels Acc, Mean of APC: 0.6639
Figure 6c, liver of DIO mice, group mean, Mean of VEH 1.034
  mRNA levels Pcsk9, Mean of APC: 0.8062
Figure 6c, liver of DIO mice, group mean, Mean of VEH 1.037
  mRNA levels Cpt1, Mean of APC: 2.106
Figure 6c, liver of DIO mice, group mean, Mean of VEH 1.041
  mRNA levels Mttp, Mean of APC: 0.553
Figure 6c, liver of DIO mice, group mean, Mean of VEH 1.044
  mRNA levels Scd1, Mean of APC: 1.532
Figure 6c, liver of DIO mice, group mean, Mean of VEH 1.051
  mRNA levels Lipg, Mean of APC: 1.548
Figure 6c, liver of DIO mice, group mean, Mean of VEH 1.052
  mRNA levels ApoB, Mean of APC: 0.8089
Figure 6c, liver of DIO mice, group mean, Mean of VEH 1.059
  mRNA levels Hmgcl, Mean of APC: 0.5112
Figure 6c, liver of DIO mice, group mean, Mean of VEH 1.06
  mRNA levels Scap, Mean of APC: 0.7595
Figure 6c, liver of DIO mice, group mean, Mean of VEH 1.072
  mRNA levels Mgll, Mean of APC: 1.87
Figure 6c, liver of DIO mice, group mean, Mean of VEH 1.142
  mRNA levels Fasn, Mean of APC: 0.5649
[4]
  mRNA levels Acc: 0.6012 and 0.6553 (2×) and 0.7255 and 0.7608 and 0.5855
  mRNA levels Acl: 0.303 and 0.3204 and 0.7174 and 0.7065 and 0.7574 and 0.524
  mRNA levels Acsl1: 0.5351 and 0.5673 and 0.8699 and 0.7501 and 0.6417 and 0.8334
  mRNA levels ApoB: 0.8489 and 0.8438 and 0.8351 and 0.7306 and 0.803 and 0.7922
  mRNA levels ApoE: 0.7234 and 0.6714 and 0.8902 and 0.7927 and 0.794 and 0.6594
  mRNA levels Cel: 1.61 and 1.758 and 2.648 and 2.653 and 2.573 and 2.434
  mRNA levels Cpt1: 2.1427 and 2.6 and 2.578 and 1.766 and 1.996 and 1.554
  mRNA levels Fasn: 0.5582 and 0.6145 and 0.8825 and 0.8943 and 0.221 and 0.219
  mRNA levels Hmgcl: 0.8031 and 0.3302 and 0.7226 and 0.5347 and 0.468 and 0.2089
  mRNA levels Hmgcs: 0.6002 and 0.7721 and 0.6122 and 0.7412 and 0.7304 and 0.7219
  mRNA levels Insig1: 1.154 and 1.297 and 1.198 and 1.324 and 1.22 and 1.341
  mRNA levels Insig2b: 1.5012 and 1.204 and 1.275 and 1.326 and 1.226 and 1.358
  mRNA levels Ldlr: 0.5776 and 0.5891 and 0.5493 and 0.4914 and 0.6354 and 0.4723
  mRNA levels Lipg: 1.701 and 1.759 and 1.656 and 1.597 and 1.253 and 1.321
  mRNA levels Lxra: 0.4169 and 0.5629 and 0.5095 and 0.7537 and 0.4614 and 0.533
  mRNA levels Mgll: 1.478 and 2.215 and 1.692 and 2.155 and 1.663 and 2.019
  mRNA levels Mttp: 0.5875 and 0.5564 and 0.479 and 0.4246 and 0.6126 and 0.6576
  mRNA levels Pcsk9: 0.8854 and 0.7972 and 0.6933 and 0.8757 and 0.803 and 0.7825
  mRNA levels Pgc-1a: 0.841 and 0.8137 and 0.7443 and 0.6176 and 0.7797 and 0.5053
  mRNA levels Pgc-1b: 0.6848 and 0.6024 and 0.8301 and 0.5369 and 0.6396 and 0.6129
  mRNA levels Scap: 0.7134 and 0.6924 and 0.8986 and 0.7526 and 0.8965 and 0.6035
  mRNA levels Scd1: 1.593 and 1.385 and 1.755 and 1.2873 and 1.57 and 1.603
Figure 6e
  relative mRNA levels Cpt1, Difference (Mean of VEH - Mean of APC): -0.4965
  relative mRNA levels Glut4, Difference (Mean of VEH - Mean of APC): -0.8396
  relative mRNA levels Hsl, Difference (Mean of VEH - Mean of APC): -0.512
  relative mRNA levels Mgl1, Difference (Mean of VEH - Mean of APC): -0.489
  relative mRNA levels Pgc-1α, Difference (Mean of VEH - Mean of APC): 0.4001
  relative mRNA levels Pgc-1β, Difference (Mean of VEH - Mean of APC): 0.2648
  relative mRNA levels Scd1, Difference (Mean of VEH - Mean of APC): 0.2529
  relative mRNA levels Ucp1, Difference (Mean of VEH - Mean of APC): 0.6029
  relative mRNA levels Ucp2, Difference (Mean of VEH - Mean of APC): -0.7752
  relative mRNA levels Ucp3, Difference (Mean of VEH - Mean of APC): -0.7811
Figure 6e, BAT genes in DIO, group mean, Mean of VEH 1.022
  mRNA levels Rxrα, Mean of APC: 0.997
Figure 6e, BAT genes in DIO, group mean, Mean of VEH 1.045
  mRNA levels Pparγ, Mean of APC: 1.136
Figure 6e, BAT genes in DIO, group mean, Mean of VEH 1.047
  mRNA levels Pparα, Mean of APC: 1.002
Figure 6e, BAT genes in DIO, group mean, Mean of VEH 1.079
  mRNA levels Srebf-1c, Mean of APC: 0.67
[5]
  mRNA levels Cpt1: 1.405 and 1.301 and 1.366 and 1.861 and 1.273 and 1.67
  mRNA levels Glut4: 2.222 and 2.223 and 2.091 and 1.366 and 1.861 and 1.914
  mRNA levels Hsl: 1.929 and 1.285 and 1.044 and 1.492 and 1.691 and 1.784
  mRNA levels Mgl1: 1.571 and 1.671 and 1.448 and 1.19 and 1.394 and 1.429
  mRNA levels Pgc-1a: 0.4882 and 0.6962 and 0.7342 and 0.6823 and 0.3242 and 0.5895
  mRNA levels Pgc-1b: 0.7936 and 0.7877 and 0.8205 and 0.6233 and 0.5976 and 0.7915
  mRNA levels Ppara: 0.957 and 1.069 and 1.282 and 0.4348 and 0.8215 and 1.448
  mRNA levels Pparg: 1.223 and 1.057 and 1.279 and 0.9002 and 1.182 and 1.178
  mRNA levels Rxra: 1.299 and 0.7585 and 0.6344 and 1.152 and 1.145 and 0.9935
  mRNA levels Scd1: 0.7542 and 0.5583 and 0.6317 and 0.6691 and 0.5321 and 0.7971
  mRNA levels Srebf1: 0.76 and 0.6196 and 0.6214 and 0.595 and 0.7194 and 0.7042
  mRNA levels Ucp1: 0.4272 and 0.4661 and 0.4353 and 0.3244 and 0.4398 and 0.6531
  mRNA levels Ucp2: 1.948 and 2.049 and 1.871 and 1.366 and 1.861 and 1.31
  mRNA levels Ucp3: 2.385 and 1.61 and 1.317 and 1.964 and 1.366 and 1.861
[6]
  relative mRNA levels Cpt1, Mean of APC: 1.479
  relative mRNA levels Glut4, Mean of APC: 1.946
  relative mRNA levels Hsl, Mean of APC: 1.538
  relative mRNA levels Mgl1, Mean of APC: 1.451
  relative mRNA levels Pgc-1α, Mean of APC: 0.5858
  relative mRNA levels Pgc-1β, Mean of APC: 0.7357
  relative mRNA levels Scd1, Mean of APC: 0.6571
  relative mRNA levels Ucp1, Mean of APC: 0.4576
  relative mRNA levels Ucp2, Mean of APC: 1.734
  relative mRNA levels Ucp3, Mean of APC: 1.751
[7]
  mRNA of Srebf-1c, Mean Diff. APC - VEH: 0.1559
  mRNA of Srebf-2, Mean Diff. APC - VEH: -0.03887
[8]
  mRNA of Srebf-1c, Mean 1 (APC): 0.6887
  mRNA of Srebf-2, Mean 1 (APC): 0.7827
